Data reported in patent US6642216B2, “Isoprenoid pathway inhibitors for stimulating bone growth” (ZymoGenetics Corporation, priority 1996, dated 2003).

Assays:
neonatal mouse calvaria = assay: Neonatal mouse calvaria assay (in vitro bone formation); assay type: cell-based; parameters: Osteoblast Number, % increase over vehicle control / New Bone Area, % increase over vehicle control: concentration or dose not given beside the values
Protocol: Briefly, four days after birth, the front and parietal bones of ICR Swiss white mouse pups are removed by microdissection and split along the sagittal suture.
Three μm sections of the calvaria are prepared. Representative sections are selected for histomorphometric assessment of bone formation or bone resorption. Bone changes are measured on sections cut 200 μm apart. Osteoblasts and osteoclasts are identified by their distinctive morphology.
Selected compounds and appropriate controls were assayed in vitro (ex vivo) for bone formation activity (described above in “Neonatal Mouse Calvaria Assay (in vitro)”). Histomorphometrical assessments of ex vivo calvaria were carried out using an OsteoMetrics bone morphometry measurement program, according to the manufacturer's instructions. Measurements were determined using either a 10- or 20-fold objective with a standard point counting eyepiece graticule.
New bone formation was determined (using a 10× objective) by measuring the new bone area formed in one field in 3 representative sections of each bone (4 bones per group). Each measurement was carried out ½ field distance from the end of the suture. Both total bone and old bone area were measured. Data were expressed as new bone area in mm^2.
Osteoblast numbers were determined by point counting. The number of osteoblast cells lining the bone surface on both sides of the bone were counted in one field using a 20× objective. Data were expressed as osteoblast numbers/mm of bone surface.
The results were calculated as new bone area in mm^2×10^−3, as above.

BMP-2 promoter = assay: ABA assay: BMP-2 promoter-luciferase reporter in 2T3-BMP-2-LUC osteoblast cells; assay type: cell-based, mouse; details: for % 59-0008 Response / Fold increase over negative control: Experiment 1
Protocol: These transformed cells are then evaluated for the production of the reporter gene product; compounds that activate the BMP promoter will drive production of the reporter protein, which can be readily assayed.
The cells were cultured using α-MEM, 10% FCS with 1% penicillin/streptomycin and 1% glutamine (“plating medium”), and were split 1:5 once per week. For the assay, the cells were resuspended in a plating medium containing 4% FCS, plated in microtiter plates at a concentration of 5×10^3 cells (in 50 μl)/well, and incubated for 24 hours at 37° C. in 5% CO2. To initiate the assay, 50 μl of the test compound or the control in DMSO was added at 2× concentration to each well, so that the final volume was 100 μl. The final serum concentration was 2% FCS, and the final DMSO concentration was 1%.
The treated cells were incubated for 24 hours at 37° C. and 5% CO2. The medium was then removed, and the cells were rinsed three times with PBS. After removal of excess PBS, 25 μl of 1× cell culture lysing reagent (Promega #E153A) was added to each well and incubated for at least ten minutes. Optionally, the plates/samples could be frozen at this point. To each well was added 50 μl of luciferase substrate (Promega #E152A; 10 ml Promega luciferase assay buffer per 7 mg Promega luciferase assay substrate). Luminescence was measured on an automated 96-well luminometer, and was expressed as either picograms of luciferase activity per well or as picograms of luciferase activity per microgram of protein.
Alternatively, the reactivity of a compound to be tested can be compared directly to a negative control containing no compound.

[1] = test system: ICR Swiss white mice calvaria; assay: In vivo murine calvarial bone growth assay; parameters: species or system mouse; details: 12.5 μg/kg/day
Protocol: Male ICR Swiss white mice, aged 4-6 weeks and weighing 13-26 gm, are employed, using 4-5 mice per group. The calvarial bone growth assay is performed as described in PCT application WO 95/24211, incorporated by reference. Briefly, the test compound or appropriate control vehicle is injected into the subcutaneous tissue over the right calvaria of normal mice. Typically, the control vehicle is the vehicle in which the compound was solubilized, and is PBS containing 5% DMSO or is PBS containing Tween (2 μl/10 ml). The animals are sacrificed on day 14 and bone growth measured by histomorphometry. Bone samples for quantitation are cleaned from adjacent tissues and fixed in 10% buffered formalin for 24-48 hours, decalcified in 14% EDTA for 1-3 weeks, processed through graded alcohols; and embedded in paraffin wax. Three to five μm sections of the calvaria are prepared, and representative sections are selected for histomorphometric assessment of the effects on bone formation and bone resorption. Sections are measured by using a camera lucida attachment to trace directly the microscopic image onto a digitizing plate. Bone changes are measured on sections cut 200 μm apart, over 4 adjacent 1×1 mm fields on both the injected and noninjected sides of the calvaria. New bone is identified by its characteristic woven structure, and osteoclasts and osteoblasts are identified by their distinctive morphology. Histomorphometry software (OsteoMeasure, Osteometrix, Inc., Atlanta) is used to process digitizer input to determine cell counts and measure areas or perimeters.
The results are reported as a measurement of total bone area (and % increase in area over vehicle control), as shown below.

## NCCC(O)(P(=O)(O)O)P(=O)(O)O [Pamidronate, pamidronate]
Neonatal mouse calvaria; other bisphosphonates, 10 μM
  New Bone Area: 6.0 ± 0.5 mm^2 × 10^−3
Neonatal mouse calvaria; other bisphosphonates, 100 μM
  New Bone Area: 5.8 ± 0.6 mm^2 × 10^−3
Neonatal mouse calvaria; other bisphosphonates, 1000 μM
  New Bone Area: 5.2 ± 0.6 mm^2 × 10^−3
Neonatal mouse calvaria; under these conditions (0.1-1000 μM)
  effect on new bone area: negligible effects

## CC[C@H](C)C(=O)O[C@H]1C[C@H](O)C=C2C=C[C@H](C)[C@H](CC[C@@H](O)C[C@@H](O)CC(=O)O)[C@H]21 [Pravastatin, pravastatin]
BMP-2 promoter; 0.195312 μg/ml
  % 59-0008 Response: −4.390%
  Fold increase over negative control: 0.807 fold
BMP-2 promoter; 0.390625 μg/ml
  % 59-0008 Response: −1.290%
  Fold increase over negative control: 0.943 fold
BMP-2 promoter; 0.78125 μg/ml
  % 59-0008 Response: −1.980%
  Fold increase over negative control: 0.913 fold
BMP-2 promoter; 1.5625 μg/ml
  % 59-0008 Response: −1.120%
  Fold increase over negative control: 0.951 fold
BMP-2 promoter; 3.125 μg/ml
  % 59-0008 Response: 0.380%
  Fold increase over negative control: 1.017 fold
BMP-2 promoter; 6.25 μg/ml
  % 59-0008 Response: 0.920%
  Fold increase over negative control: 1.040 fold
BMP-2 promoter; 12.5 μg/ml
  % 59-0008 Response: 1.110%
  Fold increase over negative control: 1.049 fold
BMP-2 promoter; 25 μg/ml
  % 59-0008 Response: 3.520%
  Fold increase over negative control: 1.155 fold
BMP-2 promoter; 50 μg/ml
  % 59-0008 Response: 5.000%
  Fold increase over negative control: 1.220 fold
BMP-2 promoter; 100 μg/ml
  % 59-0008 Response: 7.620%
  Fold increase over negative control: 1.335 fold
BMP-2 promoter; 200 μg/ml
  % 59-0008 Response: 11.670%
  Fold increase over negative control: 1.513 fold

## O=P(O)(O)C(O)(Cc1cccnc1)P(=O)(O)O [Risedronate, risedronate]
Neonatal mouse calvaria; 10 μM and 100 μM
  effect on new bone area: significant increases in new bone area
Neonatal mouse calvaria; other bisphosphonates, 10 μM
  New Bone Area: 8.5 ± 0.5 mm^2 × 10^−3
Neonatal mouse calvaria; other bisphosphonates, 100 μM
  New Bone Area: 7.3 ± 1.9 mm^2 × 10^−3
Neonatal mouse calvaria; other bisphosphonates, 1000 μM
  New Bone Area: Toxic

## CC(O)(CCO)CC(=O)O (stereo not drawn) [mevalonate]
BMP-2 promoter
  effect of mevalonic acid on primary screen activity of 59-0008: no effect
BMP-2 promoter; mevalonate 25-800 μM, mevastatin 100, 25, or 6.25 μM
  effect of added mevalonate on the activity of mevastatin in the ABA assay: inhibits the activity of mevastatin

## bFGF: control factor, "gold standard" agent for bone growth
Neonatal mouse calvaria; Experiment 1, 3 days
  New Bone Area: 5.7 mm^2 × 10^−3
  New Bone Area, % increase over vehicle control: 19%
  Osteoblast Number: 179.25 Obs/field
  Osteoblast Number, % increase over vehicle control: 84%
Neonatal mouse calvaria; Experiment 1, 7 days
  New Bone Area: 18.1 mm^2 × 10^−3
  New Bone Area, % increase over vehicle control: 132%
  Osteoblast Number: 168.7 Obs/field
  Osteoblast Number, % increase over vehicle control: 82%
[1]
  % increase in total bone area over vehicle control: 45%
  Total Bone Area: 242 μm^2
